Measured values from ChEMBL document CHEMBL4715783, “Insights into tyrosinase inhibition by compounds isolated from Greyia radlkoferi Szyszyl using biological activity, molecular docking and gene expression analysis” (Bioorg Med Chem, 2016).
In brackets after ≈: the same amount, converted by molar mass. Activity calls are given as the source filed them. The rule behind the calls is not given here.

Legend:
B16-F10 [1] = assay: Inhibition of melanin production in mouse B16-F10 cells at 12.5 ug/ml relative to control; type: functional
B16-F10 [2] = assay: Cytotoxicity against mouse B16-F10 cells assessed as reduction in cell viability incubated for 72 hrs by XTT assay; type: cell-based; conditions: B16-F10, 72 h
Mushroom tyrosinase [3] = target: T1, Mushroom tyrosinase (Agaricus bisporus, UniProt O42713+Q00024+C7FF04+C7FF05); assay: Inhibition of monophenolase activity of mushroom tyrosinase using L-Tyrosine substrate incubated for 5 mins followed by substrate addition and measured for 30 mins by colorimetry
Mushroom tyrosinase [4] = target: T1, Mushroom tyrosinase; assay: Inhibition of monophenolase activity of mushroom tyrosinase using L-Tyrosine substrate incubated for 10 mins followed by substrate addition and measured for 20 mins
B16-F10 [5] = assay: Inhibition of melanin production in mouse B16-F10 cells at 100 ug/ml relative to control; type: functional
B16-F1 = assay: Inhibition of melanin production in C57BL/6J mouse B16-F1 cells incubated for 5 days; type: functional, cell-based; conditions: B16-F1, 120 h
cells = conditions: Mus musculus, B16-BL6, 120 h
Description: Cytotoxicity against mouse B16-BL6 cells assessed as reduction in cell viability incubated for 5 days by MTT assay

Mushroom tyrosinase [6] = target: T1, Mushroom tyrosinase; assay: Inhibition of monophenolase activity of mushroom tyrosinase using L-Tyrosine substrate incubated for 30 mins by spectrophotometry
B16-F10 [7] = assay: Inhibition of melanin production in mouse B16-F10 cells at 21.42 ug/ml relative to control; type: functional, cell-based; conditions: dose 21.42 µg/ml
B16-F10 [8] = assay: Inhibition of melanin production in mouse B16-F10 cells at 6.25 ug/ml relative to control; type: functional
[9] = Solubility of compound in water at >[…] uM; type: physicochemical; conditions: buffer; dose >50 µM
Mushroom tyrosinase [10] = target: T1, Mushroom tyrosinase; assay: Inhibition of diphenolase activity of mushroom tyrosinase assessed as reduction in dopachrome formation using L-DOPA substrate incubated for 30 mins
[11] = target: T2, Mushroom tyrosinase (Agaricus bisporus) (UniProt O42713+Q00024+C7FF04+C7FF05); assay: Inhibition of monophenolase activity of mushroom tyrosinase assessed as reduction in dopachrome formation using L-Tyrosine substrate incubated for 30 mins by spectrophotometry relative to control
B16-F10 [12] = assay: Inhibition of melanin production in mouse B16-F10 cells at 25 ug/ml relative to control; type: functional
[13] = target: T2, Mushroom tyrosinase (Agaricus bisporus); assay: Inhibition of monophenolase activity of mushroom tyrosinase at 100 uM relative to control
Mushroom tyrosinase [14] = target: T1, Mushroom tyrosinase; assay: Inhibition of monophenolase activity of mushroom tyrosinase using L-Tyrosine substrate incubated for 10 mins followed by substrate addition and measured for 15 mins
Mushroom tyrosinase [15] = target: T1, Mushroom tyrosinase; assay: Inhibition of monophenolase activity of mushroom tyrosinase
B16-F10 [16] = assay: Inhibition of melanin production in mouse B16-F10 cells at 12.5 to 25 ug/ml relative to control; type: functional; conditions: dose 12.5-25 µg/ml
[17] = Inhibition of monophenolase activity of tyrosinase in C57BL/6 mouse melan-a cells incubated for 72 hrs by bradford method

Which inhibition at 12.5 µg/mL (B16-F10 [1]) does the source give for `O=C1C[C@@H](c2ccccc2)Oc2cc(O)cc(O)c21` [PINOCEMBRIN] here?
Its inhibition at 12.5 µg/mL is 8%.

What about the IC50 (B16-F10 [2]) of the same molecule?
The IC50 was 30.1 µM.

What about the IC50 (Mushroom tyrosinase [3]) of the same molecule?
Its IC50 is over 200 µM.

With `Cc1c(O)c(C)c2c(c1O)C(=O)C[C@@H](c1ccccc1)O2` [DEMETHOXYMATTEUCINOL] as the molecule, how does the IC50 (Mushroom tyrosinase [4]) read?
The IC50 was 97.6 µM.

With `OC[C@H]1O[C@@H](Oc2ccc(O)cc2)[C@H](O)[C@@H](O)[C@@H]1O` [ARBUTIN] as the molecule, how does the inhibition at 100 µg/mL (B16-F10 [5]) read?
Its inhibition at 100 µg/mL is 78%.

What about the IC50 (B16-F1) of the same molecule?
The IC50 was 122 µM.

And the IC50 (B16-F10 [2])?
The IC50 was 391 µM.

Which results are given for `O=c1c(-c2ccc(O)cc2)coc2cc(O)cc(O)c12` [GENISTEIN]?
IC50 (cells): 4.18 µg/mL (≈ 15.5 µM); IC50 (Mushroom tyrosinase [6]): 822 µM; inhibition (B16-F10 [7]): inactive; IC50 (B16-F10 [2]): 79.2 µM; IC50 (Mushroom tyrosinase [3]): > 200 µM

Which results are given for `COc1cc(O)c(C(=O)CCc2ccccc2)c(O)c1`?
IC50 (B16-F10 [2]): 373 µM; IC50 (Mushroom tyrosinase [3]): > 200 µM; inhibition at 6.25 µg/mL (B16-F10 [8]): 10%

Which solubility [9] does the source give for `O=c1c(O)c(-c2ccccc2)oc2cc(O)cc(O)c12` [GALANGIN] here?
Its solubility is “Insoluble”.

And the IC50 (Mushroom tyrosinase [10])?
Its IC50 is 101 µM.

What about the inhibition [11] of the same molecule?
Its inhibition is 20%.

What about the inhibition at 12.5 µg/mL (B16-F10 [1]) of the same molecule?
Its inhibition at 12.5 µg/mL is 30%.

What about the IC50 (B16-F10 [2]) of the same molecule?
Its IC50 is over 200 µM.

And the IC50 (Mushroom tyrosinase [3])?
The IC50 was 420.37 µM.

What about the inhibition at 25 µg/mL (B16-F10 [12]) of the same molecule?
The inhibition at 25 µg/mL was 40%.

For `O=C1C[C@@H](c2ccc(O)cc2)Oc2cc(O)cc(O)c21`, which inhibition [13] is on record?
Its inhibition is 2.8%.

Which IC50 (Mushroom tyrosinase [14]) does the source give for `O=C(/C=C/c1ccc(O)cc1O)c1ccc(O)cc1O` here?
Its IC50 is 0.06 µM.

For `CC(C)=CCc1c(O)ccc(C(=O)/C=C/c2ccc(O)cc2O)c1O` [MORACHALCONE A], which IC50 (Mushroom tyrosinase [15]) is on record?
The IC50 was 0.14 µM.

With `O=C(CCc1ccccc1)c1c(O)cc(O)cc1O` as the molecule, how does the IC50 (B16-F10 [2]) read?
Its IC50 is 219 µM.

What about the IC50 (Mushroom tyrosinase [3]) of the same molecule?
Its IC50 is 68.48 µM.

And the “inhibition (INH)” value (B16-F10 [16])?
The value was 25%.

Which IC50 [17] does the source give for `COc1cc(O)c(C(=O)[C@@H]2[C@H](CC=C(C)C)C(C)=CC[C@H]2c2ccccc2)c(O)c1` [PANDURATIN A] here?
The IC50 was 8.2 µM.

Which IC50 (Mushroom tyrosinase [4]) does the source give for `CC(C)=CCc1c(O)cc(O)c2c1O[C@H](c1ccccc1)CC2=O` [GLABRANIN] here?
Its IC50 is 80.6 µM.
